Molecular target: EmrD (Escherichia coli, UniProt P31442)
Assay: fluorescence anisotropy titration with EmrD
Assay type: binding

EmrD, sequence (P31442 whole entry): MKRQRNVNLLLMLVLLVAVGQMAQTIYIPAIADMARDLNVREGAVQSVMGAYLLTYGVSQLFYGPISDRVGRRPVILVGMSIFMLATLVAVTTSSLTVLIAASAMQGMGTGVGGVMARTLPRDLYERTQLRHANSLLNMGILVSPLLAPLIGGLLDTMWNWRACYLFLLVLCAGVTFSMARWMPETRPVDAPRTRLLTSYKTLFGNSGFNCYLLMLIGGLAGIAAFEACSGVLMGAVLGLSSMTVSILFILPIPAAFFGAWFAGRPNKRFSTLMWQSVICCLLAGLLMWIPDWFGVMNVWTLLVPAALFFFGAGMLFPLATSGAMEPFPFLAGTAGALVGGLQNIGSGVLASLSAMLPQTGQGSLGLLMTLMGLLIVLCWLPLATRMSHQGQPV

## COc1cccc2c1C(=O)c1c(O)c3c(c(O)c1C2=O)C[C@@](O)(C(=O)CO)C[C@@H]3O[C@H]1C[C@H](N)[C@H](O)[C@H](C)O1 [doxorubicin]
  Kd: ~7 µM

Reference: PMC3855667 (Biochemistry, 2013)
